Patent publication US20170349593A1, “BTK INHIBITORS” (MERCK SHARP & DOHME CORP., priority 2014, published 2017)
pIC50: −log10 of the molar value.

Assays:
[1] = biological target: T1, BTK enzyme (recombinant full-length BTK, hBTK) (Homo sapiens, UniProt Q06187); test: Btk enzyme activity assay (LANCE TR-FRET); type: biochemical; conditions: 50 pM hBTK, 25 μM ATP, 60 minute compound and enzyme incubation, concentration range 1 μM to 0.017 nM, read-out: BTK binding IC50
T1 construct: recombinant protein from baculovirus-transfected S 19 cells: full-length BTK, 6 HIS-tag cleaved; 6 HIS-tag (cleaved yes); made in house
T1 sequence (Q06187 whole entry): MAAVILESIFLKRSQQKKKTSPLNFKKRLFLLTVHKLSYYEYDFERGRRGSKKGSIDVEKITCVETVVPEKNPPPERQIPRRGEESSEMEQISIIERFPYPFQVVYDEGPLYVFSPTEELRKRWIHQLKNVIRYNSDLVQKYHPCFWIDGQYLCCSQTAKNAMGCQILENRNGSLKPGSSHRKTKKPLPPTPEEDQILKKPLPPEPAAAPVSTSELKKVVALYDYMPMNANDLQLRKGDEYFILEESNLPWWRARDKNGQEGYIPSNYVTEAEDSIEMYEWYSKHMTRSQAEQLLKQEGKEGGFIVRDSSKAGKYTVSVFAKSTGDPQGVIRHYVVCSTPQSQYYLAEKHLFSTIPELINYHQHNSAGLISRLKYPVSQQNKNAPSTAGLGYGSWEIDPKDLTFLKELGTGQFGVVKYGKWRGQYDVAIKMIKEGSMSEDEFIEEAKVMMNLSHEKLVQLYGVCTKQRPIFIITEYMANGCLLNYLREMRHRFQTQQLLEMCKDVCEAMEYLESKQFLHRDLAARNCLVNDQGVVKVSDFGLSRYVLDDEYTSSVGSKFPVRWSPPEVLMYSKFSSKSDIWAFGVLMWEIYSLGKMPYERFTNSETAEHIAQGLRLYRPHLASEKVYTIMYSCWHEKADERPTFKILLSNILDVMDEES

[2] = system: adenosine uptake into HeLa cells; test: [3H]Adenosine uptake assay; type: cell-based; conditions: Homo sapiens; accumulation of [3H]adenosine into HeLa cells; concentration range 10 μM to 0.032 nM; read-out: ADU inhibition IC50
How it was run: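 HeLa cells (25 000/well), plated overnight, were preincubated 30 minutes at ambient temperature with compound in HBSS + 5% FBS. Ten-point titrations ran from 10 μM to 0.032 nM final. [3H]adenosine was added from a 500 nM solution for 60 minutes, and uptake was measured by scintillation proximity counting; IC50 came from a 4-parameter fit.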

Row | pIC50 [1] | pIC50 [2] | SMILES
1 | 9.35 | 7.85 | C[C@H]1CC[C@@H](c2nc(-c3ccc(C(=O)Nc4cc(OC5CC5)ccn4)cc3)c3c(N)nccn23)CN1C(=O)N(C)C [Example 90, (2S,5R)-5-[8-amino-1-(4-{[4-(cyclopropyloxy)pyridin-2-yl]carbamoyl}phenyl)imidazo[1,5-a]pyrazin-3-yl]-N,N,2-trimethylpiperidine-1-carboxamide]
2 | 9.53 | 7.40 | C[C@H](O)C(=O)N1C[C@H](c2nc(-c3ccc(C(=O)Nc4cc(C5CC5)ccn4)cc3)c3c(N)nccn23)CC[C@@H]1C [Example 91, 4-(8-amino-3-{(3R,6S)-1-[(2S)-2-hydroxypropanoyl]-6-methylpiperidin-3-yl}imidazo[1,5-a]pyrazin-1-yl)-N-(4-cyclopropylpyridin-2-yl)benzamide]
3 | 9.67 | 7.65 | C[C@H]1CC[C@@H](c2nc(-c3ccc(C(=O)Nc4cc(C(F)F)ccn4)cc3)c3c(N)nccn23)CN1C(=O)N(C)C [Example 92, (2S,5R)-5-[8-amino-1-(4-{[4-(difluoromethyl)pyridin-2-yl]carbamoyl}phenyl)imidazo[1,5-a]pyrazin-3-yl]-N,N,2-trimethylpiperidine-1-carboxamide]
4 | 9.60 | 7.43 | C[C@H]1CC[C@@H](c2nc(-c3ccc(C(=O)Nc4cc(C(F)F)ccn4)cc3)c3c(N)nccn23)CN1C(=O)C1(O)CC1 [Example 93, 4-(8-amino-3-{(3R,6S)-1-[(1-hydroxycyclopropyl)carbonyl]-6-methylpiperidin-3-yl}imidazo[1,5-a]pyrazin-1-yl)-N-[4-(difluoromethyl)pyridin-2-yl]benzamide]
5 | 9.77 | 6.76 | C[C@H]1CC[C@@H](c2nc(-c3ccc(C(=O)Nc4cc(C(C)(F)F)ccn4)cc3)c3c(N)nccn23)CN1C(=O)CO [Example 95, 4-{8-amino-3-[(3R,6S)-1-(hydroxyacetyl)-6-methylpiperidin-3-yl]imidazo[1,5-a]pyrazin-1-yl}-N-[4-(1,1-difluoroethyl)pyridin-2-yl]benzamide]
6 | 9.78 | 7.16 | C[C@H]1CC[C@@H](c2nc(-c3ccc(C(=O)Nc4cc(C(C)(F)F)ccn4)cc3)c3c(N)nccn23)CN1C(=O)N(C)C [Example 96, (2S,5R)-5-[8-amino-1-(4-{[4-(1,1-difluoroethyl)pyridin-2-yl]carbamoyl}phenyl)imidazo[1,5-a]pyrazin-3-yl]-N,N,2-trimethylpiperidine-1-carboxamide]
7 | 9.49 | 6.89 | COCC(=O)N1C[C@H](c2nc(-c3ccc(C(=O)Nc4cc(C(C)(F)F)ccn4)cc3)c3c(N)nccn23)CC[C@@H]1C [Example 97, 4-{8-amino-3-[(3R,6S)-1-(methoxyacetyl)-6-methylpiperidin-3-yl]imidazo[1,5-a]pyrazin-1-yl}-N-[4-(1,1-difluoroethyl)pyridin-2-yl]benzamide]
8 | 8.76 | 5.79 | CCOc1cc(C(=O)Nc2cc(C(F)(F)F)ccn2)ccc1-c1nc([C@H]2CN(C(=O)[C@H](C)O)[C@@H](C)CO2)n2ccnc(N)c12 [Example 98, 4-(8-amino-3-{(2R,5S)-4-[(2S)-2-hydroxypropanoyl]-5-methylmorpholin-2-yl}imidazo[1,5-a]pyrazin-1-yl)-3-ethoxy-N-[4-(trifluoromethyl)pyridin-2-yl]benzamide]

The next lines start with the molecule.

Row | SMILES | pIC50 [1] | pIC50 [2]
9 | CCOc1cc(C(=O)Nc2cc(C(F)(F)F)ccn2)ccc1-c1nc([C@H]2CN(C(=O)[C@H](C)O)[C@@H](C)CO2)n2c(CC)cnc(N)c12 [Example 99, 4-(8-amino-5-ethyl-3-{(2R,5S)-4-[(2S)-2-hydroxypropanoyl]-5-methylmorpholin-2-yl}imidazo[1,5-a]pyrazin-1-yl)-3-ethoxy-N-[4-(trifluoromethyl)pyridin-2-yl]benzamide] | 9.10 | 5.70
10 | C[C@H](O)C(=O)N1C[C@H](c2nc(-c3ccc(C(=O)Nc4cc(C(F)(F)F)ccn4)cc3Cl)c3c(N)ncc(Cl)n23)OC[C@@H]1C [Example 100, 4-(8-amino-5-chloro-3-{(2R,5S)-4-[(2S)-2-hydroxypropanoyl]-5-methylmorpholin-2-yl}imidazo[1,5-a]pyrazin-1-yl)-3-chloro-N-[4-(trifluoromethyl)pyridin-2-yl]benzamide] | 9.19 | 6.18
11 | CCOc1cc(C(=O)Nc2cc(C(F)(F)F)ccn2)cc(F)c1-c1nc([C@H]2CN(C(=O)[C@H](C)O)[C@@H](C)CO2)n2c(Cl)cnc(N)c12 [Example 101, 4-(8-amino-5-chloro-3-{(2R,5S)-4-[(2S)-2-hydroxypropanoyl]-5-methylmorpholin-2-yl}imidazo[1,5-a]pyrazin-1-yl)-3-ethoxy-5-fluoro-N-[4-(trifluoromethyl)pyridin-2-yl]benzamide] | 9.18 | 5.56
12 | CCOc1cc(C(=O)Nc2cc(C(F)(F)F)ccn2)ccc1-c1nc([C@H]2CN(C(=O)C3CC3(F)F)[C@@H](C)CO2)n2c(Cl)cnc(N)c12 (stereo partly drawn) [Example 102, 4-(8-amino-5-chloro-3-{(2R,5S)-4-[(2,2-difluorocyclopropyl)carbonyl]-5-methylmorpholin-2-yl}imidazo[1,5-a]pyrazin-1-yl)-3-ethoxy-N-[4-(trifluoromethyl)pyridin-2-yl]benzamide] | 8.51 | 5.23
13 | CCOc1cc(C(=O)Nc2cc(C(F)(F)F)ccn2)ccc1-c1nc([C@H]2CN(C(=O)C3(C#N)CC3)[C@@H](C)CO2)n2c(Cl)cnc(N)c12 [Example 103, 4-(8-amino-5-chloro-3-{(2R,5S)-4-[(1-cyanocyclopropyl)carbonyl]-5-methylmorpholin-2-yl}imidazo[1,5-a]pyrazin-1-yl)-3-ethoxy-N-[4-(trifluoromethyl)pyridin-2-yl]benzamide] | 8.72 | 5.25
14 | CCOc1cc(C(=O)Nc2cc(C(F)(F)F)ccn2)ccc1-c1nc([C@H]2CN(C(=O)CCOC)[C@@H](C)CO2)n2c(Cl)cnc(N)c12 [Example 104, 4-{8-amino-5-chloro-3-[(2R,5S)-4-(3-methoxypropanoyl)-5-methylmorpholin-2-yl]imidazo[1,5-a]pyrazin-1-yl}-3-ethoxy-N-[4-(trifluoromethyl)pyridin-2-yl]benzamide] | 8.88 | 5.21
15 | CCOc1cc(C(=O)Nc2cc(C(F)(F)F)ccn2)c(F)cc1-c1nc([C@H]2CN(C(=O)C3CC3)[C@@H](C)CO2)n2c(Cl)cnc(N)c12 [Example 105, 4-{8-amino-5-chloro-3-[(2R,5S)-4-(cyclopropylcarbonyl)-5-methylmorpholin-2-yl]imidazo[1,5-a]pyrazin-1-yl}-5-ethoxy-2-fluoro-N-[4-(trifluoromethyl)pyridin-2-yl]benzamide] | 8.60 | 5.29
16 | CCOc1cc(C(=O)Nc2cc(C(F)(F)F)ccn2)ccc1-c1nc([C@H]2CN(C(=O)[C@H](C)O)[C@@H](C)CO2)n2c(F)cnc(N)c12 [Example 106, 4-(8-amino-5-fluoro-3-{(2R,5S)-4-[(2S)-2-hydroxypropanoyl]-5-methylmorpholin-2-yl}imidazo[1,5-a]pyrazin-1-yl)-3-ethoxy-N-[4-(trifluoromethyl)pyridin-2-yl]benzamide] | 8.37 | 5.20
